According to ChEMBL document CHEMBL5154763, “Discovery of 3H-pyrrolo[2,3-c]quinolines with activity against Mycobacterium tuberculosis by allosteric inhibition of the glutamate-5-kinase enzyme” (Eur J Med Chem, 2022):
Converted amounts (≈) assume the structure as drawn. The source made the active and inactive calls. The rule behind the calls is not given here.

What was measured:
Acetylcholinesterase = Acetylcholinesterase (Electrophorus electricus, UniProt O42275); assay: Inhibition of electric eel AChE using acetylthiocholine iodide as substrate by spectrophotometric analysis
[1] = system: Mycobacterium tuberculosis; assay: Antitubercular activity against Mycobacterium tuberculosis H37Rv assessed as inhibition of bacterial growth measured after 8 days by Alamar blue assay; type: functional; details: 192 h, time 8 day
[2] = system: Mycobacterium tuberculosis; assay: Antitubercular activity against Mycobacterium tuberculosis H37Rv assessed as inhibition of bacterial growth; type: functional
[3] = molecular target: T1, Glutamate 5-kinase (Escherichia coli) (UniProt P0A7B5); assay: Allosteric inhibition of Escherichia coli G5K using 10 mM L-Glu and 10 mM ATP as substate by NADH-coupled assay; details: filed as negative allosteric modulator
T1 sequence (whole entry): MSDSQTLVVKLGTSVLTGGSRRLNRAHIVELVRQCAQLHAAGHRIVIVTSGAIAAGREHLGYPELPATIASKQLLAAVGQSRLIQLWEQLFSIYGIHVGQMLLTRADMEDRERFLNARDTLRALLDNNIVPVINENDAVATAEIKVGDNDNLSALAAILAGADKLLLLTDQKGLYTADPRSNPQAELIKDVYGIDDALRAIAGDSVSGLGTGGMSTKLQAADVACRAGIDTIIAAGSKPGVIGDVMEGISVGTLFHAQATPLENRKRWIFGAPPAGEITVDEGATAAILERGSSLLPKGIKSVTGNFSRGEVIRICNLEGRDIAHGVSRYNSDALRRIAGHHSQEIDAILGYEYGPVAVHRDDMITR

[4] = Cytotoxicity against human HepG2 cells assessed as inhibition of cell growth at 10 uM measured after 48 hrs by MTT assay relative to control; type: toxicity, cell-based
[5] = Cytotoxicity against human HepG2 cells assessed as inhibition of cell growth at 20 uM measured after 48 hrs by MTT assay relative to control; type: toxicity, cell-based
[6] = molecular target: T1, Glutamate 5-kinase (Escherichia coli); assay: Allosteric inhibition of Escherichia coli G5K using 150 mM L-Glu and 10 mM ATP as substate by NADH-coupled assay relative to control; details: filed as negative allosteric modulator
[7] = molecular target: T1, Glutamate 5-kinase (Escherichia coli); assay: Allosteric inhibition of Escherichia coli G5K assessed as decrease in apparent Vmax for ATP using L-Glu and ATP as substate at 120 uM by NADH-coupled assay; details: filed as negative allosteric modulator
[8] = Cytotoxicity against human HepG2 cells assessed as inhibition of cell growth at 5 uM measured after 48 hrs by MTT assay relative to control; type: toxicity, cell-based
Plasmodium falciparum [9] = assay: Antiplasmodial activity against chloroquine-resistant Plasmodium falciparum Dd2; type: functional, organism-based
Plasmodium falciparum [10] = assay: Antiplasmodial activity against chloroquine-sensitive Plasmodium falciparum 3D7; type: functional, organism-based
[11] = molecular target: T1, Glutamate 5-kinase (Escherichia coli); assay: Allosteric inhibition of Escherichia coli G5K assessed as enzyme residual activity using 150 mM L-Glu and 2.2 to 8.4 mM ATP as substate by NADH-coupled assay relative to control
[12] = molecular target: T1, Glutamate 5-kinase (Escherichia coli); assay: Allosteric inhibition of Escherichia coli G5K assessed as enzyme residual activity using 150 mM L-Glu and 10 mM ATP as substate by NADH-coupled assay relative to control
[13] = molecular target: T1, Glutamate 5-kinase (Escherichia coli); assay: Allosteric inhibition of Escherichia coli G5K assessed as increase in apparent Km for ATP using L-Glu and ATP as substate at 120 uM by NADH-coupled assay; details: filed as negative allosteric modulator

Chain of Acetylcholinesterase (O42275 whole entry): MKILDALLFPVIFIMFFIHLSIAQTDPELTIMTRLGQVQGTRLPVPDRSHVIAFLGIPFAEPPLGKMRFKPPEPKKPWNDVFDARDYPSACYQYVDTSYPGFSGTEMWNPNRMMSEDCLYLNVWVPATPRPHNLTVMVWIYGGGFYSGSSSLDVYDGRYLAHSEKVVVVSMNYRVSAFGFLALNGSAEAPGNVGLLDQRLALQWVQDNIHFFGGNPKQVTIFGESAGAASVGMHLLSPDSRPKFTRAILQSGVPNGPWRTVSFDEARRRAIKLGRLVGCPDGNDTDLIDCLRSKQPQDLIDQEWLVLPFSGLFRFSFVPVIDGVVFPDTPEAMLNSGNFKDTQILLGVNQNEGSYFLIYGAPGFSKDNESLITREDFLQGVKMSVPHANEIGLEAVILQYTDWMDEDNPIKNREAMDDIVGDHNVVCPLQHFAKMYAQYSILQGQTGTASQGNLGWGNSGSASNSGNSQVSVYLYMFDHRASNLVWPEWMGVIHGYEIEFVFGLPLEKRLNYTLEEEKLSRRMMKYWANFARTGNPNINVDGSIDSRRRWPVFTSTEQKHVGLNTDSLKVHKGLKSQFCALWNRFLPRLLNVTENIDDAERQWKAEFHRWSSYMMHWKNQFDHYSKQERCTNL

Row | Structure (SMILES) | MIC [1] [µM] | also measured
1 | c1ccc2c(c1)nc(-c1c[nH]c3ccccc13)c1[nH]ccc12 [MARINOQUINOLINE E] | – | IC50 (Acetylcholinesterase): 3.6 µM
2 | Cc1ccc2c(c1)nc(C1CC1)c1[nH]ccc12 | 45 (≈ 10 µg/mL) | –
3 | c1ccc(CCc2nc3ccccc3c3cc[nH]c23)cc1 | 36.7 (≈ 10 µg/mL) | –
4 | O=C(c1c[nH]c2ccccc12)c1nc2ccccc2c2cc[nH]c12 [MARINOQUINOLINE F] | – | IC50 (Acetylcholinesterase): 3.6 µM
5 | c1ccc2c(c1)nc(-c1ccc(N3CCCC3)cc1)c1c3ncccc3[nH]c21 | – | MIC [2]: 13.7 µM (≈ 4.99 µg/mL)
6 | Clc1ccc(-c2nc3cc(Cl)ccc3c3cc[nH]c23)cc1 | 16 (≈ 5.01 µg/mL) | –
7 | Cn1ccc2c3ccccc3nc(-c3ccc(Cl)cc3)c21 | 17.1 (≈ 5.01 µg/mL) | –
8 | CCCCCCCCc1nc2ccccc2c2cc[nH]c12 | 17.8 (≈ 4.99 µg/mL) | –
9 | CC(C)(C)OC(=O)Nc1ccc(-c2nc3ccccc3c3[nH]c4ccccc4c23)cc1 | – | MIC [2]: 6.1 µM (≈ 2.5 µg/mL)
10 | COC(=O)c1ccc2c(c1)nc(-c1ccc(Cl)cc1)c1[nH]ccc12 | > 500 | –
11 | COc1ccc2c(c1)nc(Cc1ccccc1)c1[nH]ccc12 | 34.7 (≈ 10 µg/mL) | –
12 | COc1ccc2c(c1)nc(CCc1ccccc1)c1c2ccn1C | 7.9 (≈ 2.5 µg/mL) | –
13 | Clc1ccc(-c2nc3ccccc3c3c(Cl)c[nH]c23)cc1 | 16 (≈ 5.01 µg/mL) | –
14 | Fc1ccc2c(c1)nc(CCc1ccccc1)c1[nH]ccc12 | 34.4 (≈ 9.99 µg/mL) | –
15 | c1ccc(-c2ccc(-c3nc4ccccc4c4cc[nH]c34)cc2)cc1 | 31.2 (≈ 10 µg/mL) | –
16 | CCCCCCCCc1nc2cc(OC)ccc2c2cc[nH]c12 | 16.1 (≈ 5 µg/mL) | –
17 | FC(F)(F)c1ccc2c(c1)nc(-c1ccc(Cl)cc1)c1[nH]ccc12 | 14.4 (≈ 4.99 µg/mL) | –
18 | CCCCCCCCc1nc2cc(C)ccc2c2cc[nH]c12 | 17 (≈ 5.01 µg/mL) | –

Row | Structure (SMILES) | MIC [1] [µM] | also measured
19 | Fc1ccc2c(c1)nc(-c1ccc(Cl)cc1)c1c2ccn1CC1CC1 | 14.2 (≈ 4.98 µg/mL) | –
20 | COc1c(N2C[C@@H]3CCCN[C@@H]3C2)c(F)cc2c(=O)c(C(=O)O)cn(C3CC3)c12 [MOXIFLOXACIN] | 0.15 (≈ 0.0602 µg/mL) | –
21 | CC(C)Cc1nc2ccccc2c2cc[nH]c12 | 22.6 (≈ 5.07 µg/mL) | IC50 (Acetylcholinesterase): 3.6 µM
22 | Fc1ccc2c(c1)nc(-c1ccc(Cl)cc1)c1[nH]ccc12 | 4.2 (≈ 1.25 µg/mL) | I0.5 [3]: 33 µM; inhibition at 48 h, 10 µM [4]: 1%; inhibition at 48 h, 20 µM [5]: 2%; inhibition [6]: 40%; inhibition [7]: Active; inhibition at 48 h, 5 µM [8]: 1%
23 | Cc1ccc2c(c1)nc(-c1ccc(Cl)cc1)c1[nH]ccc12 | 8.5 (≈ 2.49 µg/mL) | –
24 | Cc1ccc2c(c1)nc(-c1ccc(Cl)cc1)c1c2ccn1C | 16.3 (≈ 5 µg/mL) | –
25 | Oc1ccc(Cc2nc3ccccc3c3cc[nH]c23)cc1 [MARINOQUINOLINE D] | – | IC50 (Acetylcholinesterase): 3.6 µM
26 | Clc1ccc(-c2nc3ccccc3c3c(Br)c[nH]c23)cc1 | 14 (≈ 5.01 µg/mL) | –
27 | O=C(O)[C@@H]1CCCN1 | – | I0.5 [3]: 2.5 µM; inhibition [6]: 100%
28 | Clc1ccc(-c2nc3ccccc3c3cc[nH]c23)cc1 | 17.9 (≈ 4.99 µg/mL) | –
29 | Fc1cccc(-c2c[nH]c3c(-c4ccc(Cl)cc4)nc4ccccc4c23)c1 | 26.8 (≈ 9.99 µg/mL) | –
30 | CCCCCCCCc1nc2cc(F)ccc2c2cc[nH]c12 | 16.8 (≈ 5.01 µg/mL) | –
31 | c1ccc(Cc2nc3ccccc3c3cc[nH]c23)cc1 [MARINOQUINOLINE C] | – | IC50 (Acetylcholinesterase): 3.6 µM
32 | Cc1nc2ccccc2c2cc[nH]c12 [MARINOQUINOLINE A] | – | IC50 (Acetylcholinesterase): 3.6 µM
33 | c1ccc2c(c1)nc(C1CC1)c1[nH]ccc12 | 24 (≈ 5 µg/mL) | –
34 | Nc1ncnc2c1ncn2Cc1nc2ccccc2c2cc[nH]c12 | – | IC50 (Plasmodium falciparum [9]): 1.65 µM; IC50 (Plasmodium falciparum [10]): 1.47 µM
35 | COc1ccc2c(c1)nc(CCc1ccccc1)c1[nH]ccc12 | 4.1 (≈ 1.24 µg/mL) | Activity [11]: 66%; Activity [12]: 68%; I0.5 [3]: 22.1 µM; inhibition at 48 h, 10 µM [4]: 3%; inhibition at 48 h, 20 µM [5]: 17%; inhibition [13]: Active; inhibition at 48 h, 5 µM [8]: 1%
